Assay results taken from the supplement of paper PMC12137928.
Counter-ions that a name gives are not always drawn.

Test system: HCT116
Conditions: 72 h
Summary of the method: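 Luminescence was read with CellTiter-Glo in HCT116 cells seeded at 250 per well in 1536-well plates. Signals were scaled between vehicle at 0% and positive control at -100%, then pattern-corrected. IC50 and maximal efficacy were obtained by fitting a four-parameter Hill equation.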

SMILES	IC50 cell viability (ICRF193 0 nM)	IC50 cell viability (ICRF193 200 nM)
Clc1ccc(CCCOCCCN2CCCCC2)cc1 [Pitolisant (hydrochloride)]	> 45.8 µM	> 45.8 µM
NC(N)=Nc1nc(CSCC/C(N)=N/S(N)(=O)=O)cs1 [Famotidine]	> 45.8 µM	> 45.8 µM
CC(=O)c1ccc2c(c1)N(CCCN1CCN(CCO)CC1)c1ccccc1S2 [Acetophenazine Maleate]	> 45.8 µM	> 45.8 µM
c1ccc([C@H]2CN3CCSC3=N2)cc1 [Levamisole hydrochloride]	> 45.8 µM	> 45.8 µM
Cc1cccc(N(C)C(=S)Oc2ccc3c(c2)C2CCC3C2)c1 (centres undefined) [Tolciclate]	> 45.8 µM	> 45.8 µM
CCCCCCCCCCOc1cc2c(O)c(C(=O)OCC)cnc2cc1OCC [Decoquinate]	> 45.8 µM	> 45.8 µM
COc1ccc(CCN(C)CCCC(C#N)(c2cc(OC)c(OC)c(OC)c2)C(C)C)cc1OC (centres undefined) [Gallopamil hydrochloride]	> 45.8 µM	> 45.8 µM
CO[C@@H]1[C@H](OC(=O)/C=C/C=C/C=C/C=C/C(=O)O)CC[C@]2(CO2)[C@H]1[C@@]1(C)O[C@@H]1CC=C(C)C [Fumagillin]	> 45.8 µM	> 45.8 µM
CC(=O)O[C@@H]1C(=O)O[C@H]2[C@@H]1OC(=O)[C@@H]2OC(C)=O [Aceglatone]	> 45.8 µM	> 45.8 µM
CN1C(C(=O)Nc2ccccn2)=C(O)c2sc(Cl)cc2S1(=O)=O [Lornoxicam]	> 45.8 µM	> 45.8 µM
CC(=O)O[C@H]1CC[C@H]2[C@@H]3CCC4=CC(=O)CCC4=C3C=C[C@]12C [Trenbolone (acetate)]	> 45.8 µM	> 45.8 µM
CC[C@H]1C[C@H]2[C@@H]3CCC4=CC(=O)CC[C@@H]4[C@H]3CC[C@]2(C)[C@H]1O [Oxendolone]	> 45.8 µM	> 45.8 µM
CCC(O)c1ccccc1 (centres undefined) [1-Phenyl-1-propanol]	> 45.8 µM	> 45.8 µM
O=C1NS(=O)(=O)c2ccccc21 [Saccharin]	> 45.8 µM	> 45.8 µM
N#Cc1ccc(C(c2ccc(C#N)cc2)n2cncn2)cc1 [Letrozole]	> 45.8 µM	> 45.8 µM
N=C(N)NC(=O)Cc1c(Cl)cccc1Cl [Guanfacine hydrochloride]	> 45.8 µM	> 45.8 µM
Cc1ccccc1C(OCCN(C)C)c1ccccc1 (centres undefined) [Orphenadrine dihydrogen citrate]	> 45.8 µM	> 45.8 µM
Cc1cc(O)c(C(=O)N[C@@H](C(=O)N[C@@H]2C(=O)N3C(C(=O)O)=C(CSc4nnnn4C)CS[C@H]23)c2ccc(O)cc2)cn1 [Cefpiramide (sodium)]	> 45.8 µM	> 45.8 µM
CC(C)[C@@H](C)/C=C/[C@@H](C)[C@H]1CC[C@H]2/C(=C/C=C3\C[C@@H](O)CC[C@@H]3C)CCC[C@]12C [Dihydrotachysterol]	> 45.8 µM	> 45.8 µM
COC(=S)NCCn1c([N+](=O)[O-])cnc1C [CARNIDAZOLE]	> 45.8 µM	> 45.8 µM
C[C@H](N[C@@H](CCc1ccccc1)C(=O)O)C(=O)N1CCC[C@H]1C(=O)O [Enalapril acid]	> 45.8 µM	> 45.8 µM

SMILES	IC50 cell viability (ICRF193 0 nM)	IC50 cell viability (ICRF193 200 nM)
O=C1C2CC=CCC2C(=O)N1SC(Cl)(Cl)Cl (centres undefined) [Captan]	> 45.8 µM	> 45.8 µM
CCCCCCCCCC(=O)O[C@H]1CC[C@H]2[C@@H]3CCC4=CC(=O)CC[C@@H]4[C@H]3CC[C@]12C [Nandrolone decanoate]	> 45.8 µM	> 45.8 µM
CC1=C(/C=C/C(C)=C/C=C/C(C)=C/C(=O)Oc2c(C)c(C)c3c(c2C)CCC(C)(CCCC(C)CCCC(C)CCCC(C)C)O3)C(C)(C)CCC1 (centres undefined) [Tocoretinate]	> 45.8 µM	> 45.8 µM
O=c1oc2ccccc2c(O)c1Cc1c(O)c2ccccc2oc1=O [Dicumarol]	> 45.8 µM	> 45.8 µM
NC(=O)c1ccc([N+](=O)[O-])cc1Cl [2-Chloro-4-nitrobenzamide]	> 45.8 µM	> 45.8 µM
CCCC(=O)O[C@]1(C(=O)COC(C)=O)CC[C@H]2[C@@H]3C[C@H](F)C4=CC(=O)C=C[C@]4(C)[C@@]3(F)[C@@H](O)C[C@@]21C [Difluprednate]	> 45.8 µM	> 45.8 µM
CN[C@@H]1[C@@H](O)[C@@H](O[C@@H]2[C@@H](O)[C@H](O[C@H]3O[C@H](CN)[C@@H](O)[C@H](O)[C@H]3O)[C@@H](N)C[C@H]2NC(=O)[C@@H](O)CN)OC[C@]1(C)O [Isepamicin]	> 45.8 µM	> 45.8 µM
Cc1ccc(Nc2c(F)cccc2Cl)c(CC(=O)O)c1 [Lumiracoxib]	> 45.8 µM	> 45.8 µM
COc1ccc(-n2nc(C(N)=O)c3c2C(=O)N(c2ccc(N4CCCCC4=O)cc2)CC3)cc1 [Apixaban]	> 45.8 µM	> 45.8 µM
Cc1ccc(/C=C2/C(=O)C3(C)CCC2C3(C)C)cc1 (centres undefined) [ENZACAMENE]	> 45.8 µM	> 45.8 µM
CCN(CC)C(=O)Nc1ccc(OCC(O)CNC(C)(C)C)c(C(C)=O)c1 (centres undefined) [Celiprolol hydrochloride]	> 45.8 µM	> 45.8 µM
COc1ccc2c(=O)c(C)c(-c3ccccc3)oc2c1CN(C)C [Dimefline hydrochloride]	> 45.8 µM	> 45.8 µM
O=C(O)C[C@@H]1CC[C@H](NC(=O)Cc2cccs2)B(O)O1 [Vaborbactam]	> 45.8 µM	> 45.8 µM
CN1CCCN=C1/C=C/c1cccs1 [Pyrantel tartrate]	> 45.8 µM	> 45.8 µM
O=C1CN(/N=C/c2ccc([N+](=O)[O-])o2)C(=O)N1 [Nitrofurantoin]	> 45.8 µM	> 45.8 µM
O=C(Nc1ccccc1)OCC(CN1CCCCC1)OC(=O)Nc1ccccc1 (centres undefined) [Diperodon hydrochloride]	> 45.8 µM	> 45.8 µM
CNC(C)C(O)c1ccccc1 (centres undefined) [RACEPHEDRINE HYDROCHLORIDE]	> 45.8 µM	> 45.8 µM
COc1cc(CC2NCCc3cc(O)c(O)cc32)cc(OC)c1OC (centres undefined) [Trimethoquinol]	> 45.8 µM	> 45.8 µM
CN(CCCN1c2ccccc2CCc2ccccc21)CC(=O)c1ccc(Cl)cc1 [Lofepramine hydrochloride]	> 45.8 µM	> 45.8 µM
Cc1c(OCC(F)(F)F)ccnc1C[S@@+]([O-])c1nc2ccccc2[nH]1 [(R)-Lansoprazole]	> 45.8 µM	> 45.8 µM
C[C@@H](O)[C@H]1C(=O)N2C(C(=O)OCOC(=O)C(C)(C)C)=C(SC3CN(C4=NCCS4)C3)[C@H](C)[C@H]12 [Tebipenem pivoxil]	> 45.8 µM	> 45.8 µM

SMILES	IC50 cell viability (ICRF193 0 nM)	IC50 cell viability (ICRF193 200 nM)
CCC1=C(C)CN(C(=O)NCCc2ccc(S(=O)(=O)NC(=O)N[C@H]3CC[C@H](C)CC3)cc2)C1=O [Glimepiride]	> 45.8 µM	> 45.8 µM
CS(=O)(=O)Nc1ccc([N+](=O)[O-])cc1Oc1ccccc1 [Nimesulide]	> 45.8 µM	> 45.8 µM
CC(C(O)c1ccccc1)N(C)C/C=C/c1ccccc1 (centres undefined) [Cinnamedrine]	> 45.8 µM	> 45.8 µM
Cc1nn(C)c2c1C(c1ccccc1F)=NCC(=O)N2C [Zolazepam Hydrochloride]	> 45.8 µM	> 45.8 µM
CCCCCCOC(=O)NC(=N)c1ccc(NCc2nc3cc(C(=O)N(CCC(=O)OCC)c4ccccn4)ccc3n2C)cc1 [BIBR-1048]	> 45.8 µM	> 45.8 µM
COc1ccc(CN(CCN(C)C)c2ncccn2)cc1 [Thonzylamine hydrochloride]	> 45.8 µM	> 45.8 µM
CC1=NN(c2ccccc2)C(=O)C1 [Edaravone]	> 45.8 µM	> 45.8 µM
Cn1c(NCCN(CCO)CCCc2ccc([N+](=O)[O-])cc2)cc(=O)n(C)c1=O [Nifekalant]	> 45.8 µM	> 45.8 µM
CCC(=O)c1ccc(O)cc1 [Paroxypropione]	> 45.8 µM	> 45.8 µM
O[C@@H]1CO[C@H]2[C@@H]1OC[C@@H]2O [Isosorbide]	> 45.8 µM	> 45.8 µM
CC1CCCC(C)N1CCCC(O)(c1ccccc1)c1ccccn1 (centres undefined) [Pirmenol]	> 45.8 µM	> 45.8 µM
N#Cc1ccc(Oc2ccc3c(c2)COB3O)cc1 [AN-2728]	> 45.8 µM	> 45.8 µM
C[N+]1([O-])[C@@H]2CC(OC(=O)[C@H](CO)c3ccccc3)C[C@H]1[C@@H]1O[C@@H]12 (single isomer, unassigned; (-)) [(-)-Scopolamine N-oxide]	> 45.8 µM	> 45.8 µM
Nc1cccc2c1C(=O)N(C1CCC(=O)NC1=O)C2=O (centres undefined) [Pomalidomide]	> 45.8 µM	> 45.8 µM
CC(C)CCC[C@@H](C)[C@H]1CC[C@H]2[C@@H]3CC=C4C[C@@H](O)CC[C@]4(C)[C@H]3CC[C@]12C [Cholesterol]	> 45.8 µM	> 45.8 µM
CCOc1cc(OCC)c(C(=O)CCC(=O)O)cc1OCC [Trepibutone]	> 45.8 µM	> 45.8 µM
CO[C@@]1(NC(=O)CSCC#N)C(=O)N2C(C(=O)O)=C(CSc3nnnn3C)CS[C@@H]21 [Cefmetazole sodium]	> 45.8 µM	> 45.8 µM
N=C(N)c1ccc(OCCCOc2ccc(C(=N)N)cc2)cc1 [Propamidine]	> 45.8 µM	> 45.8 µM
CC(C)(CO)[C@@H](O)C(=O)NCCC(=O)NCCSSCCNC(=O)CCNC(=O)[C@H](O)C(C)(C)CO [D-Pantethine]	> 45.8 µM	> 45.8 µM
OC[C@@H]1NC[C@@H](O)[C@H](O)[C@H]1O [deoxynorjrimycin(1)]	> 45.8 µM	> 45.8 µM
